The target in this experiment is T1, TAAR348 (Petromyzon marinus, UniProt A0A678XLR1).
T1 construct: TAAR-like GPCR overexpressed in HEK293 cells with Gs BRET2 sensors; cryo-EM complex with Gs (Gαs, Gβ, Gγ), NB35 and ScFv16; construct details only in supplement
T1 sequence (A0A678XLR1 1-348): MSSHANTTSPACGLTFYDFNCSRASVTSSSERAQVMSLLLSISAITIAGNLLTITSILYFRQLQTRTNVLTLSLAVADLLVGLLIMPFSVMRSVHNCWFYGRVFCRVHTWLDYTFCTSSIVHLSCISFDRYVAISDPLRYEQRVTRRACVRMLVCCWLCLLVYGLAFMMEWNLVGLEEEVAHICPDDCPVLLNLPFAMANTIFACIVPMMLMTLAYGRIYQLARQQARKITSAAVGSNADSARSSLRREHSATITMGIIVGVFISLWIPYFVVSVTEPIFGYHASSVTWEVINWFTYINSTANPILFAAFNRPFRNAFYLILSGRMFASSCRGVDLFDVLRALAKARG
The experiment in a line: BRET2 G protein trimer dissociation assay (Gs). Format: cell-based.

One may read the EC50 as the midpoint of the concentration-response curve. Low readings indicate higher potency in that assay, high ones lower potency in that assay. Compound `NCCCNCCCCNCCCN` [spermine] displayed a concentration giving a half-maximal response (EC50) of 0.155 ± 0.0069 µM.

Source of the values: publication PMC12476453, “Chemosensation of the pheromone spermine by the olfactory TAAR-like receptor TAAR348” (Cell Discovery, 2025).
